# In patent US20210255193A1, “LYSINE REACTIVE PROBES AND USES THEREOF” (The Scripps Research Institute, priority 2017, published 2021):
# How the values were obtained:
# Assay in all cases: competitive isoTOP-ABPP
# Format in all cases: binding
# [1] = target: T1, DYNC1H1 Cytoplasmic dynein 1 heavy chain 1 (Homo sapiens, UniProt Q14204); details: 50 uM, in vitro; for R value (DMSO/fragment) for probe 1 labeling: Q14204_K1649; for R value (DMSO/fragment) for probe 1 labeling / isoTOP-ABPP reactivity ratio at lysine Q14204_K1649: 231 sol; for isoTOP-ABPP ratio (R) at liganded lysine Q14204_K1649: sol, 231
# T1 construct: isoTOP-ABPP experiments performed in cell lysates (in vitro); endogenous in cells; host or cells: soluble proteome of human cancer cell lines (MDA-MB-231, Ramos, Jurkat)
# Outline: (§1)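 Fragments at 50 μM (activated esters) or 100 μM (guanidinylating agents) were incubated with 0.5 ml lysate before probe labeling. After 0.1 mM STP-alkyne for 1 h, samples were clicked to isotopically distinct TEV tags, and R taken as DMSO-over-compound MS1 peak-area ratio.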
# [2] = target: T2, STRN3 Striatin-3 (Homo sapiens, UniProt Q13033); details: for R value (DMSO/fragment) for probe 1 labeling: Q13033_K755; for R value (DMSO/fragment) for probe 1 labeling / isoTOP-ABPP reactivity ratio at lysine Q13033_K755 / isoTOP-ABPP ratio (R) at liganded lysine Q13033_K755: 50 uM, in vitro; for R value (DMSO/fragment) for probe 1 labeling / isoTOP-ABPP reactivity ratio at lysine Q13033_K755: 231 sol; for isoTOP-ABPP ratio (R) at liganded lysine Q13033_K755: sol, 231
# T2 construct: isoTOP-ABPP experiments performed in cell lysates (in vitro); endogenous in cells; host or cells: soluble proteome of human cancer cell lines (MDA-MB-231, Ramos, Jurkat)
# T2 sequence (Q13033 1-797): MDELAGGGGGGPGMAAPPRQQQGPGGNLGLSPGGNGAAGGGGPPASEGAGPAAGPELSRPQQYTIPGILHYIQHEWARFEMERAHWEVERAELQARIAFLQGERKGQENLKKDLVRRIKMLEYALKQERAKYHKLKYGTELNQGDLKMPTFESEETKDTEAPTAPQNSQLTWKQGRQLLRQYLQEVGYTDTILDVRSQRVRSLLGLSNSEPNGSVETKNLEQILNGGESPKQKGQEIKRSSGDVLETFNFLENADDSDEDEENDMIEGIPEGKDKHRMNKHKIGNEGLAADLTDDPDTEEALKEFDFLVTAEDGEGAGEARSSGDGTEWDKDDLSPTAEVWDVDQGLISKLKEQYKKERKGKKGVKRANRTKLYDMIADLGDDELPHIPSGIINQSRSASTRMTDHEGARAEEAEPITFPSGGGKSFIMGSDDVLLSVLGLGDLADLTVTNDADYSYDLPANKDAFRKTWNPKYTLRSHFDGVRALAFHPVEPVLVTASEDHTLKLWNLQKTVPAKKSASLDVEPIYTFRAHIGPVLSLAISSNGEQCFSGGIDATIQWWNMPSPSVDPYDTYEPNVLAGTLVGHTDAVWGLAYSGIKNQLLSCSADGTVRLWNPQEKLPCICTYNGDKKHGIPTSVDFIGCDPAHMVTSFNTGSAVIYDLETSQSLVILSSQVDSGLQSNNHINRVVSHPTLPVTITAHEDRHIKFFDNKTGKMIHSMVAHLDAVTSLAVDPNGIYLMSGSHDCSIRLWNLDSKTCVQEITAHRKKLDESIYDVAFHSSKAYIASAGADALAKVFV
# Outline: as §1
# [3] = target: T3, TRAP1 Heat shock protein 75 kDa, mitochondrial (Homo sapiens, UniProt Q12931); details: for R value (DMSO/fragment) for probe 1 labeling: Q12931_K699; for R value (DMSO/fragment) for probe 1 labeling / isoTOP-ABPP reactivity ratio at lysine Q12931_K699 / isoTOP-ABPP ratio (R) at liganded lysine Q12931_K699: 50 uM, in vitro; for R value (DMSO/fragment) for probe 1 labeling / isoTOP-ABPP reactivity ratio at lysine Q12931_K699: 231 sol; for isoTOP-ABPP ratio (R) at liganded lysine Q12931_K699: sol, 231
# T3 construct: isoTOP-ABPP experiments performed in cell lysates (in vitro); endogenous in cells; host or cells: soluble proteome of human cancer cell lines (MDA-MB-231, Ramos, Jurkat)
# T3 sequence (Q12931 60-704): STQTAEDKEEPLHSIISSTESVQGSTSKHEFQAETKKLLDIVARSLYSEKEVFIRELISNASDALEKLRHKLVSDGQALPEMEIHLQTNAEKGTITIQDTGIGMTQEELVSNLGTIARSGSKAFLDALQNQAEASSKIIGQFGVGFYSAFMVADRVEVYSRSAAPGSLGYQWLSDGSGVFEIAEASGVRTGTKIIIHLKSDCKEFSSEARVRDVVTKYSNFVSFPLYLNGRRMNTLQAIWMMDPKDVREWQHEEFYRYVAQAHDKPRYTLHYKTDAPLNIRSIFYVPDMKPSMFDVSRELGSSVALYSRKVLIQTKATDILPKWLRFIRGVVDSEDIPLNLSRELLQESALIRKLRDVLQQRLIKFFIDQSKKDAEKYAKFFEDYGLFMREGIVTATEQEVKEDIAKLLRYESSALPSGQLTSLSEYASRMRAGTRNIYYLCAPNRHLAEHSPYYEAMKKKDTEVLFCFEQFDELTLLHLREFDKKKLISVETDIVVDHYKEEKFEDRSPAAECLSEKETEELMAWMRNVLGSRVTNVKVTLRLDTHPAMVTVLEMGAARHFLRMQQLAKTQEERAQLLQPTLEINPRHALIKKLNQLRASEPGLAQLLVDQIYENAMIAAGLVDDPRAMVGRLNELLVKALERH
# Outline: as §1
# T1 sequence (Q14204 whole entry, the tested form may be a part): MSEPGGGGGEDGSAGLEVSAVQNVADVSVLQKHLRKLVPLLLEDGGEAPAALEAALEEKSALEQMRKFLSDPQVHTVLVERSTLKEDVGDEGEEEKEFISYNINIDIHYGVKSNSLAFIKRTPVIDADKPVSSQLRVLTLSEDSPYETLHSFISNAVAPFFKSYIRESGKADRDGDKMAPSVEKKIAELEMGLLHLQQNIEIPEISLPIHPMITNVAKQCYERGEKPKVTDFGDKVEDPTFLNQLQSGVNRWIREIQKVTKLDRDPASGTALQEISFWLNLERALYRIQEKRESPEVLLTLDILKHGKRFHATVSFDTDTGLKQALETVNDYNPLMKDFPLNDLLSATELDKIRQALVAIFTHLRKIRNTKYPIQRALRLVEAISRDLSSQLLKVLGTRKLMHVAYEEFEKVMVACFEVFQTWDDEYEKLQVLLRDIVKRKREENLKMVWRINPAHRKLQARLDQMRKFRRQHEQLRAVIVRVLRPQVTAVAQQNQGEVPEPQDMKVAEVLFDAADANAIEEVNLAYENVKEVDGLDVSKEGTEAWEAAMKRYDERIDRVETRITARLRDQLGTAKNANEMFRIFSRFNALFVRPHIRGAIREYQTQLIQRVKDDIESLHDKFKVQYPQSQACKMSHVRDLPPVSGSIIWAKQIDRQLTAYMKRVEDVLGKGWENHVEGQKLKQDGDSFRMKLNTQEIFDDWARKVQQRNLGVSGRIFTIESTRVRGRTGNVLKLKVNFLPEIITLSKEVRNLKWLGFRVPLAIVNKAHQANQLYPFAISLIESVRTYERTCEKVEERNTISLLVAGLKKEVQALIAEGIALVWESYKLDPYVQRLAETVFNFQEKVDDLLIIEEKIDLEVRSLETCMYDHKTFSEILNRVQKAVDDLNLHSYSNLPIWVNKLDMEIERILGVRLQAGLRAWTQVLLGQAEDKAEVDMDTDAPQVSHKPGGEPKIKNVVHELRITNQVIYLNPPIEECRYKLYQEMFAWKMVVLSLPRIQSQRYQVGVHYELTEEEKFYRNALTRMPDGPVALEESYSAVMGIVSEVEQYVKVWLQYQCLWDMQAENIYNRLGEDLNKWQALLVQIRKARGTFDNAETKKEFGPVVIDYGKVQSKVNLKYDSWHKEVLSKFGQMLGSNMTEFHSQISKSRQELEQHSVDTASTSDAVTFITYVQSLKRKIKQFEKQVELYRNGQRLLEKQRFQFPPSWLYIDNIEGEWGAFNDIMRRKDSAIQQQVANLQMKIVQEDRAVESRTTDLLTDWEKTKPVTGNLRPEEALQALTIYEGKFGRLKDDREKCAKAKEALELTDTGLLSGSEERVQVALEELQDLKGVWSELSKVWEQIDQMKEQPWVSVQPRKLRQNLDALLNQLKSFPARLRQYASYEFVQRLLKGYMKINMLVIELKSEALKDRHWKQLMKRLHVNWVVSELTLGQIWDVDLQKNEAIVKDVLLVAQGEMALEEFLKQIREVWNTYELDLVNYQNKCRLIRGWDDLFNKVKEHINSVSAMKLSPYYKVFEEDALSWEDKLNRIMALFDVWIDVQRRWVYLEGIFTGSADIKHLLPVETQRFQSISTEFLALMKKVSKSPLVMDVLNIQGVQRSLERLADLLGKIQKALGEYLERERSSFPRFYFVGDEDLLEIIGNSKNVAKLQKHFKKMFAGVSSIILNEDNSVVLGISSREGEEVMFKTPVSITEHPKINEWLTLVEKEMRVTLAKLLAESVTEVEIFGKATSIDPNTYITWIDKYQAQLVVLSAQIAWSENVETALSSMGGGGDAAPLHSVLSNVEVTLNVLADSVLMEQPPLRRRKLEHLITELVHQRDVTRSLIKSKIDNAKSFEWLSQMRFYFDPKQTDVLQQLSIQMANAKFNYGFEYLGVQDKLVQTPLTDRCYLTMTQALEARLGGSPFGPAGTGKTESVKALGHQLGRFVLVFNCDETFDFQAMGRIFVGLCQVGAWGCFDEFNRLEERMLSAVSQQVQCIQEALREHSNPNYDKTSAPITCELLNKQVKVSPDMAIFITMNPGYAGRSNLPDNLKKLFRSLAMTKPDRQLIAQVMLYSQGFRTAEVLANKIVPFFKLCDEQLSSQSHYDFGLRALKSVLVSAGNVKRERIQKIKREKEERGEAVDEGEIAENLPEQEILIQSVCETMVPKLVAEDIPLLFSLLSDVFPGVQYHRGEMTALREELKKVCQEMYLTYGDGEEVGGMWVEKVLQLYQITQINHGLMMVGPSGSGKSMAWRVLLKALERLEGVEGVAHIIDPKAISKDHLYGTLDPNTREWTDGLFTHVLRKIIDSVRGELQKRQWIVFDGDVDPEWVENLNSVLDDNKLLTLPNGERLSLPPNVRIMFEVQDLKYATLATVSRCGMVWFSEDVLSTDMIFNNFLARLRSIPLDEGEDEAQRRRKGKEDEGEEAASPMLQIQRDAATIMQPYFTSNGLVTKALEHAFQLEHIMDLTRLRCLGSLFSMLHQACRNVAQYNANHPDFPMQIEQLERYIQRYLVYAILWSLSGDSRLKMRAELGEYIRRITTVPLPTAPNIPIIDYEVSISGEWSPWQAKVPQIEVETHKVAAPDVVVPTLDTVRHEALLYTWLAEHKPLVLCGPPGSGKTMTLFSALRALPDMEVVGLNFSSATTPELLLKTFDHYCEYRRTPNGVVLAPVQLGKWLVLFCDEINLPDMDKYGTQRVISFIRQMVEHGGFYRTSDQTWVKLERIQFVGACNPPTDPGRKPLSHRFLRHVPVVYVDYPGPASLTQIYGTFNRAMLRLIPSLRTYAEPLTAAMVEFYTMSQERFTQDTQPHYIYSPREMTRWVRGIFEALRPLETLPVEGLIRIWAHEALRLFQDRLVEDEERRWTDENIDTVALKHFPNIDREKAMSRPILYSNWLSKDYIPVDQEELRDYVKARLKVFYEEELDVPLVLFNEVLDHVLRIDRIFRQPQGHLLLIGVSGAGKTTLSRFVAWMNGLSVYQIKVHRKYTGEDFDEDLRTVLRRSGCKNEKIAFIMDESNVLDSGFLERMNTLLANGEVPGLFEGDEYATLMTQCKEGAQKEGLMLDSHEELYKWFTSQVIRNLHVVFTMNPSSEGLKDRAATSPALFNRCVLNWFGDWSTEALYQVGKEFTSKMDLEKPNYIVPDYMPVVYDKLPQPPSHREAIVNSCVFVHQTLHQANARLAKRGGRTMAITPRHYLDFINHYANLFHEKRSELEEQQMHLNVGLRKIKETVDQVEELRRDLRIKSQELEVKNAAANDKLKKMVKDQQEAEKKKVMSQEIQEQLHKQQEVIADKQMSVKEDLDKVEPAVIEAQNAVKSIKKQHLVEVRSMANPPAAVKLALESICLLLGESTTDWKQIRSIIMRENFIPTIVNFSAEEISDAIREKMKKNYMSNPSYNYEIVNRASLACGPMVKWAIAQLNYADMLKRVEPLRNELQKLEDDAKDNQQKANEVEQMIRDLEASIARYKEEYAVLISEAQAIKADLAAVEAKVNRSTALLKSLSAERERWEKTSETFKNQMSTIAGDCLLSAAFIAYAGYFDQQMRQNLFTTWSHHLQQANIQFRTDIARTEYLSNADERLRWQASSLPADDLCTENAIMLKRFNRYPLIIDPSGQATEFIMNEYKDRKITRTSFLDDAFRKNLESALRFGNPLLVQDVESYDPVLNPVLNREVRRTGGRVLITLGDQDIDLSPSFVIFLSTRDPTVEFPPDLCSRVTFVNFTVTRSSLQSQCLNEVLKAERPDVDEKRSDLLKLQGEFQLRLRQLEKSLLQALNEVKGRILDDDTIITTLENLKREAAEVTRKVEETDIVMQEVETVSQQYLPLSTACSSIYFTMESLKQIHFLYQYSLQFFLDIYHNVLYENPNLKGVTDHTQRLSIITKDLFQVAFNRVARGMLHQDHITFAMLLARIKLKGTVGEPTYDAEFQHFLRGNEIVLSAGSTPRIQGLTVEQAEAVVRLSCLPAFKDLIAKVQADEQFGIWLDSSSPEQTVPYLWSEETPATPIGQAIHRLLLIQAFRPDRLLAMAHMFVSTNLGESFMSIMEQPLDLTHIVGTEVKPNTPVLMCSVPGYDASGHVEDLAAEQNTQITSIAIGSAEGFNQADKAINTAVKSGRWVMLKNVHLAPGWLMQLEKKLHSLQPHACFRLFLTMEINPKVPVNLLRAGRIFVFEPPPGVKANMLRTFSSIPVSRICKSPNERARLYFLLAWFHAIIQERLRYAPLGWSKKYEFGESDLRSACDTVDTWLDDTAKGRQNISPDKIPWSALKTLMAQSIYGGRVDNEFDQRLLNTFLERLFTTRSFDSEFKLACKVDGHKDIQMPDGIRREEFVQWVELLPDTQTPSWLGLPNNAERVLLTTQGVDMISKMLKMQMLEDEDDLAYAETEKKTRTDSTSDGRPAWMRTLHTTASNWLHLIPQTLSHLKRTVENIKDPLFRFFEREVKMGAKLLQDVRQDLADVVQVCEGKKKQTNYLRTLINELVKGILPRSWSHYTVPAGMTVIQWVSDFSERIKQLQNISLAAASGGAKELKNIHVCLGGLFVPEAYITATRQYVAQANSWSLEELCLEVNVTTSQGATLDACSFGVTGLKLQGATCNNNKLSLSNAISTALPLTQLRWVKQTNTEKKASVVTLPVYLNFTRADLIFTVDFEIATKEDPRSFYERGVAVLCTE
structure (smiles),measurement,setting,value
"O=C(CCc1cn(-c2ccccc2)nc1-c1ccccc1)Oc1c(F)c(F)c(F)c(F)c1F [fragment 19, Pentafluorophenyl 3-(1,3-diphenyl-1H-pyrazol-4-yl)propanoate]",R value (DMSO/fragment) for probe 1 labeling,[1],1.0
same,R value (DMSO/fragment) for probe 1 labeling,[2],0.9
same,R value (DMSO/fragment) for probe 1 labeling,[3],1.2
"O=C(Oc1c(F)c(F)c(F)c(F)c1F)C(c1ccccc1)c1ccccc1 [fragment 20, Pentafluorophenyl 2,2-diphenylacetate]",R value (DMSO/fragment) for probe 1 labeling,[1],1.0
same,R value (DMSO/fragment) for probe 1 labeling,[2],0.9
same,R value (DMSO/fragment) for probe 1 labeling,[3],1.0
"O=C(Oc1c(F)c(F)c(F)c(F)c1F)c1cc(C(F)(F)F)cc(C(F)(F)F)c1 [fragment 21, Pentafluorophenyl 3,5-bis(trifluoromethyl)benzoate]",R value (DMSO/fragment) for probe 1 labeling,[1],1.4
same,R value (DMSO/fragment) for probe 1 labeling,[2],0.9
same,R value (DMSO/fragment) for probe 1 labeling,[3],0.9
"Cn1cc(CC(=O)Oc2c(F)c(F)c(F)c(F)c2F)c2ccccc21 [fragment 22, Pentafluorophenyl 2-(1-methyl-1H-indol-3-yl)acetate]",R value (DMSO/fragment) for probe 1 labeling,[1],1.1
same,R value (DMSO/fragment) for probe 1 labeling,[2],1.0
same,R value (DMSO/fragment) for probe 1 labeling,[3],1.1
"COc1cc(CCC(=O)Oc2c(F)c(F)c(F)c(F)c2F)cc(OC)c1OC [fragment 23, Pentafluorophenyl 3-(3,4,5-trimethoxyphenyl)propanoate]",R value (DMSO/fragment) for probe 1 labeling,[1],1.7
same,R value (DMSO/fragment) for probe 1 labeling,[2],1.2
same,R value (DMSO/fragment) for probe 1 labeling,[3],1.0
"O=C(Oc1c(F)c(F)c(F)c(F)c1F)C1CCN(C(=O)OCc2ccccc2)CC1 [fragment 24, 1-Benzyl 4-(pentafluorophenyl) piperidine-1,4-dicarboxylate]",isoTOP-ABPP reactivity ratio at lysine Q14204_K1649,[1],1.3
same,isoTOP-ABPP reactivity ratio at lysine Q13033_K755,[2],1.1
same,isoTOP-ABPP reactivity ratio at lysine Q12931_K699,[3],0.9
"O=C(Oc1c(F)c(F)c(F)c(F)c1F)c1ccc2ccccc2n1 [fragment 25, Pentafluorophenyl quinoline-2-carboxylate]",isoTOP-ABPP reactivity ratio at lysine Q14204_K1649,[1],1.7
same,isoTOP-ABPP reactivity ratio at lysine Q13033_K755,[2],1.0
same,isoTOP-ABPP reactivity ratio at lysine Q12931_K699,[3],0.9
"O=C(CCc1coc2cc(F)ccc2c1=O)Oc1c(F)c(F)c(F)c(F)c1F [fragment 26, Pentafluorophenyl 3-(7-fluoro-4-oxo-4H-chromen-3-yl)propanoate]",isoTOP-ABPP reactivity ratio at lysine Q13033_K755,[2],1.0
"O=C(CN1C(=O)c2ccccc2C1=O)Oc1c(F)c(F)c(F)c(F)c1F [fragment 27, Pentafluorophenyl 2-(1,3-dioxoisoindolin-2-yl)acetate]",isoTOP-ABPP reactivity ratio at lysine Q14204_K1649,[1],4.2
same,isoTOP-ABPP reactivity ratio at lysine Q13033_K755,[2],1.0
same,isoTOP-ABPP reactivity ratio at lysine Q12931_K699,[3],0.7
"CCn1cc(C(=O)Oc2c(F)c(F)c(F)c(F)c2F)c(=O)c2ccc(C)nc21 [fragment 28, Pentafluorophenyl 1-ethyl-7-methyl-4-oxo-1,4-dihydro-1,8-naphthyridine-3-carboxylate]",isoTOP-ABPP reactivity ratio at lysine Q14204_K1649,[1],1.0
same,isoTOP-ABPP reactivity ratio at lysine Q13033_K755,[2],0.9
same,isoTOP-ABPP reactivity ratio at lysine Q12931_K699,[3],0.9
"O=C(CCc1cn(-c2ccccc2)nc1-c1ccccc1)Oc1ccc([N+](=O)[O-])cc1[N+](=O)[O-] [fragment 29, 2,4-Dinitrophenyl 3-(1,3-diphenyl-1H-pyrazol-4-yl)propanoate]",isoTOP-ABPP reactivity ratio at lysine Q14204_K1649,[1],1.1
same,isoTOP-ABPP reactivity ratio at lysine Q13033_K755,[2],1.1
same,isoTOP-ABPP reactivity ratio at lysine Q12931_K699,[3],2.2
"O=C(Oc1ccc([N+](=O)[O-])cc1[N+](=O)[O-])C(c1ccccc1)c1ccccc1 [fragment 30, 2,4-Dinitrophenyl 2,2-diphenylacetate]",isoTOP-ABPP reactivity ratio at lysine Q13033_K755,[2],2.0
same,isoTOP-ABPP reactivity ratio at lysine Q12931_K699,[3],4.1
"O=C(Oc1ccc([N+](=O)[O-])cc1[N+](=O)[O-])c1cc(C(F)(F)F)cc(C(F)(F)F)c1 [fragment 31, 2,4-Dinitrophenyl 3,5-bis(trifluoromethyl)benzoate]",isoTOP-ABPP reactivity ratio at lysine Q13033_K755,[2],1.4
same,isoTOP-ABPP reactivity ratio at lysine Q12931_K699,[3],1.0
"Cn1cc(CC(=O)Oc2ccc([N+](=O)[O-])cc2[N+](=O)[O-])c2ccccc21 [fragment 32, 2,4-Dinitrophenyl 2-(1-methyl-1H-indol-3-yl)acetate]",isoTOP-ABPP reactivity ratio at lysine Q14204_K1649,[1],1.2
same,isoTOP-ABPP reactivity ratio at lysine Q13033_K755,[2],2.7
same,isoTOP-ABPP reactivity ratio at lysine Q12931_K699,[3],2.0
"COc1cc(CCC(=O)Oc2ccc([N+](=O)[O-])cc2[N+](=O)[O-])cc(OC)c1OC [fragment 33, 2,4-Dinitrophenyl 3-(3,4,5-trimethoxyphenyl)propanoate]",isoTOP-ABPP reactivity ratio at lysine Q14204_K1649,[1],1.1
same,isoTOP-ABPP reactivity ratio at lysine Q13033_K755,[2],1.8
same,isoTOP-ABPP reactivity ratio at lysine Q12931_K699,[3],1.5
"O=C(Oc1ccc([N+](=O)[O-])cc1[N+](=O)[O-])C1CCN(C(=O)OCc2ccccc2)CC1 [fragment 34, 1-Benzyl 4-(2,4-dinitrophenyl) piperidine-1,4-dicarboxylate]",isoTOP-ABPP ratio (R) at liganded lysine Q13033_K755,[2],3.7
same,isoTOP-ABPP ratio (R) at liganded lysine Q12931_K699,[3],1.8
"O=C(Oc1ccc([N+](=O)[O-])cc1[N+](=O)[O-])c1ccc2ccccc2n1 [fragment 35, 2,4-Dinitrophenyl quinoline-2-carboxylate]",isoTOP-ABPP ratio (R) at liganded lysine Q14204_K1649,[1],1.0
same,isoTOP-ABPP ratio (R) at liganded lysine Q13033_K755,[2],1.0
same,isoTOP-ABPP ratio (R) at liganded lysine Q12931_K699,[3],0.9
"O=C(CCc1coc2cc(F)ccc2c1=O)Oc1ccc([N+](=O)[O-])cc1[N+](=O)[O-] [fragment 36, 2,4-Dinitrophenyl 3-(7-fluoro-4-oxo-4H-chromen-3-yl)propanoate]",isoTOP-ABPP ratio (R) at liganded lysine Q14204_K1649,[1],1.2
same,isoTOP-ABPP ratio (R) at liganded lysine Q13033_K755,[2],1.3
same,isoTOP-ABPP ratio (R) at liganded lysine Q12931_K699,[3],1.7
"O=C(Oc1ccc([N+](=O)[O-])cc1[N+](=O)[O-])c1ccc(-c2ccccc2)cc1 [fragment 37, 2,4-Dinitrophenyl [1,1′-biphenyl]-4-carboxylate]",isoTOP-ABPP ratio (R) at liganded lysine Q13033_K755,[2],0.8
same,isoTOP-ABPP ratio (R) at liganded lysine Q12931_K699,[3],0.9
"O=C(CC12CC3CC(CC(C3)C1)C2)Oc1ccc([N+](=O)[O-])cc1[N+](=O)[O-] [fragment 38, 2,4-Dinitrophenyl 2-(adamantan-1-yl)acetate]",isoTOP-ABPP ratio (R) at liganded lysine Q14204_K1649,[1],1.0
same,isoTOP-ABPP ratio (R) at liganded lysine Q13033_K755,[2],0.9
same,isoTOP-ABPP ratio (R) at liganded lysine Q12931_K699,[3],1.4
"O=C(Oc1ccc([N+](=O)[O-])cc1[N+](=O)[O-])c1ccc(Oc2ccccc2)cc1 [fragment 39, 2,4-Dinitrophenyl 4-phenoxybenzoate]",isoTOP-ABPP ratio (R) at liganded lysine Q14204_K1649,[1],1.0
same,isoTOP-ABPP ratio (R) at liganded lysine Q13033_K755,[2],0.9
same,isoTOP-ABPP ratio (R) at liganded lysine Q12931_K699,[3],0.9
"CC(=O)Oc1ccc([N+](=O)[O-])cc1[N+](=O)[O-] [fragment 43, 2,4-Dinitrophenyl acetate]",isoTOP-ABPP ratio (R) at liganded lysine Q14204_K1649,[1],0.9
same,isoTOP-ABPP ratio (R) at liganded lysine Q12931_K699,[3],1.0
"O=C(Oc1c(F)c(F)cc(F)c1F)c1cc(C(F)(F)F)cc(C(F)(F)F)c1 [fragment 48, 2,3,5,6-Tetrafluorophenyl 3,5-bis(trifluoromethyl)benzoate]","isoTOP-ABPP ratio, lysine Q13033_K755",[2]; 50 uM_231_sol_in vitro,1.2
same,"isoTOP-ABPP ratio, lysine Q12931_K699",[3]; 50 uM_231_sol_in vitro,1.0
"COC(=O)NC(=NC(=O)OCC1c2ccccc2-c2ccccc21)n1cccn1 [fragment 49, N-Methoxycarbonyl-N′-9-fluorenylmethoxycarbonyl-pyrazole-1-carboxamidine]","isoTOP-ABPP ratio, lysine Q13033_K755",[2]; 100 uM_231_sol_in vitro,1.8
same,"isoTOP-ABPP ratio, lysine Q12931_K699",[3]; 100 uM_231_sol_in vitro,1.2
